Assay results reported in patent US20230331652A1, “TRANS-CYCLOOCTENES WITH HIGH REACTIVITY AND FAVORABLE PHYSIOCHEMICAL PROPERTIES” (University of Delaware, priority 2020, published 2023).
Entries after “also recorded” stand apart in the source; their conditions may differ.

Legend:
[1] = Storage stability of neat TCO; assay type: physicochemical; conditions: neat versus stored in solution
Excerpt: The diastereoselective additions of 2 with methyl α-lithioacetate or lithioacetonitrile provided a straightforward path to introduce handles for conjugation via amide bond or ether formation. The reaction of ketone 2 with lithium bis(trimethylsilyl)amide (LiHMDS)/methyl acetate produced ester 9 in 86% yield. Similarly, the combination of 2 with LiHMDS and acetonitrile produced nitrile 10 in 98% yield. Hydrolysis of 9 with trimethyltin hydroxide followed by DIC-mediated coupling with N-hydroxysuccinimide gave NHS ester 11 in 89% yield (FIG. 3B). Alternately, using LiOH gave 11 in 46% yield after DIC coupling. Through amide coupling, 11 gave the fluorescent TAMRA-conjugate 12 with favorable physiochemical properties, and 11 was also combined with hydrazine monohydrate to give hydrazide 13 with a potential handle for aldehyde conjugation. TCO 9 also was combined with LiAlH4 to provide diol 14 in 89% yield which was next used in a Williamson ether synthesis with NaH/propargyl bromide to give 96% yield of propargyl ether 15. […] Amine 16 was synthesized by LiAlH4 reduction of TCO nitrile 10 in 93% yield to introduce an acid reactive conjugation handle. […] In summary, ketone 2 can serve as a readily prepared, central intermediate for the diastereoselective preparation of a range of hydrophilic a-TCO conjugates.

[2] = tested on: HeLa cells transfected with either HaloTag-H2B-GFP (nucleus) or HaloTag-GAP43-GFP (cytoplasm); assay: TAMRA-a-TCO permeability assay (HaloTag intracellular labeling); assay type: cell-based; conditions: 1 μM, 30 min
Experimental: Here, cells are transfected with a GFP-HaloTag construct fused to a protein that controls subcellular localization, and then labeled by a tetrazine-HaloTag ligand 21. Upon subsequent reaction with fluorescent TAMRA-a-TCO, conjugation is expected only in those cells that express the HaloTag fusion protein, and co-localization of GFP and TAMRA fluorescence is expected.
HeLa Cell Culture and Transfection: HeLa cells were grown in Dulbecco's modified eagle medium (DMEM, Life Technologies) supplemented with 10% (v:v) heat inactivated fetal bovine serum (Life Technologies), 2 mM I-glutamine, and 100 units/mL penicillin/streptomycin (Life Technologies) in a humidified incubator at 37° C./5% CO2. Transfection was performed with cells at 70% confluency using Lipofectamine 3000 according to the manufacturer's instructions. HeLa cells were incubated for 5 hours at 37° C./5% CO2 before being exchanged with antibiotic free growth media for 16-20 hours prior to experimental procedures. […]

HeLa cells = assay: TAMRA-TCO comparative washout assay; assay type: cell-based; conditions: 5 μM, 30 min incubation
Excerpt: While TCO-derivatives offer rapid labeling kinetics, a consideration for labeling by fluorophore-tagged TCOs has been the background fluorescence due to non-covalent cellular binding that can be ameliorated only by extended washout times. More hydrophilic oxo- and dioxo-trans-cyclooctenes with backbone oxygens offer improvements, but are difficult to synthesize and, for dioxo-TCO, display reduced Diels-Alder kinetics. As shown in FIGS. 5A-5C, the fluorescent conjugates TAM RA-TCO, TAMRA-oxo-TCO and TAMRA-a-TCO were prepared and compared their cellular washout times to unconjugated TAMRA. Thus, HeLa cells were incubated for 30 min with TAMRA-dyes, and cells were initially washed three times with DPBS, and then cell media was exchanged after 10, 40 and 120 minutes. After each wash, cells were imaged live by fluorescence microscopy with illumination at 531 nm and fixed-intensity across all samples. Widefield images of the cells after 3 washes are shown in FIG. 5B; images after the earlier and later washings are shown in FIG. 8. Background fluorescence was quantified by dividing total fluorescence by the number of cells in each image (FIG. 5C).
HeLa cells were seeded at 5×10^3 cells per well in a poly-L-lysine (0.1 mg/mL) coated 48-well plate and allowed to grow for 48 hours in Dulbecco's modified eagle medium (DMEM, Life Technologies) supplemented with 5% FBS (Life Technologies), 1 mM L-glutamine, and 1% penicillin/streptomycin (Life Technologies). Cells were then incubated with media containing 5 μM of TAMRA-TCO, TAMRA-oxo-TCO, or TAMRA-a-TCO 12 (1 mM stock solutions in DMSO, diluted twice into media) for 30 mins at 37° C. All wells were washed three times with DPBS before adding fresh media. Cells were imaged after 2 DPBS washes and again after the 3rd DPBS wash, then incubated for additional time intervals: 10 minutes, 40 minutes, and 2 hour. At each time point, the media was removed from the designated wells and replaced with fresh media before imaging. Images were taken with an EVOS M7000 and all images were taken with the same laser power and gain. Fluorescence intensity was calculated for each sample in 3 replicates using ImageJ and the fluorescence data was normalized with the cell count of each image.

Compound | storage stability [1] | cell permeability ([2]; live HeLa cells, after MeTz-Halo 21 (10 μM)) | colocalization of TAMRA signal with GFP ([2]; nuclear (H2B) and cytoplasmic (GAP43) HaloTag targets, confocal microscopy) | reduction in background fluorescence relative to TAMRA-TCO (HeLa cells; after initial 3× wash) | background fluorescence / washout after 2 hours (HeLa cells; media exchanges up to 2 hours)
C=CCC1(O)CC/C=C/CCC1 (stereo not drawn) [Compound 6, 5-eq-Allyl-5-ax-hydroxy-trans-cyclooctene] | polymerize if not stored in solution |  |  |  | 
C#CCOCC[C@]1(O)CC/C=C/CCC1 [Compound 15, 5-ax-Hydroxy-5-eq-(2-(prop-2-yn-1-yloxy)ethyl)-trans-cyclooctene] | more stable alternative |  |  |  | 
CN(C)c1ccc2c(-c3ccc(C(=O)NCCCCCNC(=O)C[C@]4(O)CC/C=C/CCC4)cc3C(=O)[O-])c3ccc(=[N+](C)C)cc-3oc2c1 [TAMRA-a-TCO, (R,E)-2-(6-(dimethylamino)-3-(dimethyliminio)-3H-xanthen-9-yl)-5-((5-(2-(1-hydroxycyclooct-4-en-1-yl)acetamido)pentyl)carbamoyl)benzoate] |  | cell permeable | subcellular colocalization of GFP and TAMRA fluorescence; also recorded: selective colocalization of the TAMRA signal with GFP was observed | 85% | essentially complete
